Test results taken from BindingDB's records for doi:10.1016/j.ejmech.2011.02.067 (University of Lisbon, 2011).

Assay: Inhibition of human recombinant caspase-3 expressed in Saccharomyces cerevisiae CG379 assessed as growth stimulation after 2 days

## CC(C)[C@H](NC(=O)OCc1ccccc1)C(=O)N[C@H](C=CS(C)(=O)=O)CC(=O)O [(S)-3-((S)-2-(benzyloxycarbonylamino)-3-methylbutanamido)-5-(methylsulfonyl)pent-4-enoic acid]
  IC50: 35.3 µM
